# Laboratory results: patent US10851065B2 (Eisai R&D Management Co., Ltd., priority 2015, dated 2020)
# Columns and labels:
# [1] = test system: MCF7-WT cells (MCF7 ER-alpha wildtype); test: In vitro proliferation (viability) assay, CellTiter-Glo, MCF7-WT cells; assay type: cell-based; settings: Homo sapiens; MCF7-WT cells, 6 days, CTG vs day 0; mean ± SD-type spread (n); read-out: GI50 WT
# Protocol: (§1) MCF7 BUS cells (Coser, et al., (2003) PNAS 100(24): 13994-13999) were maintained in Dulbecco's Modified Eagle Medium supplemented with 10% FBS, 4 mM L-glutamine and 1× non-essential amino acids. Lenti-X 293T cells (Clontech, Cat #632180) were routinely cultured in Dulbecco's Modified Eagle Medium supplemented with 10% FBS.
# (§2) The QuikChange II XL Site-Directed Mutagenesis Kit (Agilent Technologies, Cat #200523) was used to generate Y537S, Y537C, Y537N and D538G mutations within the ERα exon 8. Wild-type ESR1 cDNA (GeneCopoeia Inc., Cat #GC-A0322, accession no. NM 000125) was used as a template with the following mutagenesis primers (where the underlined nucleotides represent site mutations); Y537S: F-AAGAACGTGGTGCCCCTCTCTGACCTGCTGCTGGAGATG (SEQ ID NO: 1), R-CATCTCCAGCAGCAGGTCAGAGAGGGGCACCACGTTCTT (SEQ ID NO: 2); Y537N: F-AAGAACGTGGTGCCCCTCAATGACCTGCTGCTGGAGATG (SEQ ID NO: 3), R-CATCTCCAGCAGCAGGTCATTGAGGGGCACCACGTTCTT (SEQ ID NO: 4); Y537C: F-AAGAACGTGGTGCCCCTCTGTGACCTGCTGCTGGAGATG (SEQ ID NO: 5), R-CATCTCCAGCAGCAGGTCACAGAGGGGCACCACGTTCTT (SEQ ID NO: 6); D538G: F-AACGTGGTGCCCCTCTATGGCCTGCTGCTGGAGATGCTG (SEQ ID NO: 7), R-CAGCATCTCCAGCAGCAGGCCATAGAGGGGCACCACGTT (SEQ ID NO: 8). WT and mutant ESR1 cDNAs were cloned into the designation lentiviral vector pLenti6.3/V5-Dest (Invitrogen, Cat #V533-06). To make lentivirus, DNAs (WT and mutant ESR1) were co-transfected with packaging plasmids into Lenti-X 293T cells using TransIT (Mirus, Cat #MIR 2700). 48 h post-transfection, virus containing media was filtered and added to MCF7 cells in the presence of 8 µg/ml polybrene overnight. Two days following infection, cells were placed under selection with 10 μg/ml blasticidin for 2 weeks for stable expression.
# (§3) MCF7-WT and -Y537S cells were seeded at 1500 cells/well in black-walled 96-well plates (assay plates, Costar, Cat #3904). In parallel, cells were also seeded in a separate 96-well plate (8 wells/cell line, control plate) for which a CTG (CellTiter-Glo® Luminescent Viability Assay, Promega, Cat #G7572) was measured the following day (day 0 reading). The day 0 reading was used for the GI50 calculation at the termination of the experiment. The day following seeding, compounds were added to assay plates. Briefly, a 1:4 serial dilution was prepared in DMSO at 200× final concentration for a total of 10 concentrations (9 dilutions containing compound and one is DMSO only). Serially diluted compounds were pipetted into medium to prepare a compound-medium mix at 10× final concentration. 10 μl of compound-medium mix was added to MCF7-WT and -Y537S cells at 3 wells/concentration (triplicate for each concentration). On day 3, media/compound was removed and replaced with fresh media/compound as described above. On day 6, CTG was measured and compared to day 0 readings from control plate to assess GI50.
# [2] = test system: MCF7-Y537S cells (MCF7 ER-alpha Y537S mutant); test: In vitro proliferation (viability) assay, CellTiter-Glo, MCF7-Y537S cells; assay type: cell-based; settings: Homo sapiens; MCF7-Y537S cells, 6 days, CTG vs day 0; mean ± SD-type spread (n); read-out: GI50 MUT (Y537S)
# Protocol: as §1, §2, §3
SMILES,GI50 [1],GI50 [2]
"CC/C(=C(/c1ccc(OCCNC/C=C/C(=O)N(C)C)cc1)c1ccc2[nH]nc(F)c2c1)c1ccccc1 [Compound 2, (E)-4-((2-(4-((E)-1-(3-fluoro-1H-indazol-5-yl)-2-phenylbut-1-en-1-yl)phenoxy)ethyl)amino)-N,N-dimethylbut-2-enamide]",0.00556 ± 0.00284 µM,0.0648 ± 0.0372 µM
"CC/C(=C(/c1ccc(OCCNC/C=C/C(=O)N(C)C)cc1)c1ccc2[nH]nc(F)c2c1)c1cc(F)cc(C(F)(F)F)c1 [Compound 3, (E)-4-((2-(4-((E)-1-(3-fluoro-1H-indazol-5-yl)-2-(3-fluoro-5-(trifluoromethyl)phenyl)but-1-en-1-yl)phenoxy)ethyl)amino)-N,N-dimethylbut-2-enamide]",0.00695 ± 0.00247 µM,0.159 ± 0.0918 µM
"CC/C(=C(/c1ccc(OCCNC/C=C/C(=O)N(C)C)cc1)c1ccc2[nH]ncc2c1F)c1ccccc1 [Compound 4, (E)-4-((2-(4-((E)-1-(4-fluoro-1H-indazol-5-yl)-2-phenylbut-1-en-1-yl)phenoxy)ethyl)amino)-N,N-dimethylbut-2-enamide]",0.00455 ± 0.00334 µM,0.0363 ± 0.016 µM
"CC/C(=C(/c1ccc(OCCNC/C=C/C(=O)N(C)C)cc1)c1ccc2[nH]ncc2c1)c1cc(F)cc(F)c1 [Compound 5, (E)-4-((2-(4-((E)-2-(3,5-difluorophenyl)-1-(1H-indazol-5-yl)but-1-en-1-yl)phenoxy)ethyl)amino)-N,N-dimethylbut-2-enamide]",0.00844 ± 0.00387 µM,0.0814 ± 0.0457 µM
"CC/C(=C(/c1ccc(OCCNC/C=C/C(=O)N(C)C)cc1)c1ccc2[nH]ncc2c1)c1ccc(F)c(F)c1 [Compound 6, (E)-4-((2-(4-((E)-2-(3,4-difluorophenyl)-1-(1H-indazol-5-yl)but-1-en-1-yl)phenoxy)ethyl)amino)-N,N-dimethylbut-2-enamide]",0.00293 ± 0.00283 µM,0.111 ± 0.124 µM
"CC/C(=C(/c1ccc(OCCNC/C=C/C(=O)N(C)C)cc1)c1ccc2[nH]ncc2c1)c1cc(F)cc(Cl)c1 [Compound 7, (E)-4-((2-(4-((E)-2-(3-chloro-5-fluorophenyl)-1-(1H-indazol-5-yl)but-1-en-1-yl)phenoxy)ethyl)amino)-N,N-dimethylbut-2-enamide]",0.00192 µM,0.0741 ± 0.0552 µM
"C#CCN(C)C(=O)/C=C/CNCCOc1ccc(/C(=C(/CC)c2ccccc2)c2ccc3[nH]ncc3c2)cc1 [Compound 8, (E)-4-((2-(4-((E)-1-(1H-indazol-5-yl)-2-phenylbut-1-en-1-yl)phenoxy)ethyl)amino)-N-methyl-N-(prop-2-yn-1-yl)but-2-enamide]",0.00159 µM,0.0223 µM
"C#CCCN(C)C(=O)/C=C/CNCCOc1ccc(/C(=C(/CC)c2ccccc2)c2ccc3[nH]ncc3c2)cc1 [Compound 9, (E)-4-((2-(4-((E)-1-(1H-indazol-5-yl)-2-phenylbut-1-en-1-yl)phenoxy)ethyl)amino)-N-(but-3-yn-1-yl)-N-methylbut-2-enamide]",0.00557 µM,0.118 µM
"CC/C(=C(/c1ccc(OCCNC/C=C/C(=O)N2CCC2)cc1)c1ccc2[nH]ncc2c1)c1ccccc1 [Compound 10, (E)-4-((2-(4-((E)-1-(1H-indazol-5-yl)-2-phenylbut-1-en-1-yl)phenoxy)ethyl)amino)-1-(azetidin-1-yl)but-2-en-1-one]",0.00222 ± 0.00234 µM,0.0212 ± 0.0172 µM
"CC/C(=C(/c1ccc(OCCNC/C=C/C(=O)N2CCCC2)cc1)c1ccc2[nH]ncc2c1)c1ccccc1 [Compound 11, (E)-4-((2-(4-((E)-1-(1H-indazol-5-yl)-2-phenylbut-1-en-1-yl)phenoxy)ethyl)amino)-1-(pyrrolidin-1-yl)but-2-en-1-one]",0.00076 µM,0.014 µM
"CC/C(=C(/c1ccc(OCCNC/C=C/C(=O)N2CCCCC2)cc1)c1ccc2[nH]ncc2c1)c1ccccc1 [Compound 12, (E)-4-((2-(4-((E)-1-(1H-indazol-5-yl)-2-phenylbut-1-en-1-yl)phenoxy)ethyl)amino)-1-(piperidin-1-yl)but-2-en-1-one]",0.00169 µM,0.0367 µM
"CN(C)C(=O)/C=C/CNCCOc1ccc(/C(=C(\c2ccccc2)C2CCC2)c2ccc3[nH]ncc3c2)cc1 [Compound 13, (E)-4-((2-(4-((E)-2-cyclobutyl-1-(1H-indazol-5-yl)-2-phenylvinyl)phenoxy)ethyl)amino)-N,N-dimethylbut-2-enamide]",0.00208 ± 0.00157 µM,0.02 ± 0.0137 µM
"CN(C)C(=O)/C=C/CNCCOc1ccc(/C(=C(\c2ccccc2)C2CCC2)c2ccc3[nH]nc(F)c3c2)cc1 [Compound 14, (E)-4-((2-(4-((E)-2-cyclobutyl-1-(3-fluoro-1H-indazol-5-yl)-2-phenylvinyl)phenoxy)ethyl)amino)-N,N-dimethylbut-2-enamide 2,2,2-trifluoro acetate]",0.00246 ± 0.00143 µM,0.0307 ± 0.00402 µM
"CC/C(=C(/c1ccc(OCCNC/C=C/C(=O)N2CCOCC2)cc1)c1ccc2[nH]ncc2c1)c1ccccc1 [Compound 15, (E)-4-((2-(4-((E)-1-(1H-indazol-5-yl)-2-phenylbut-1-en-1-yl)phenoxy)ethyl)amino)-1-morpholinobut-2-en-1-one]",0.00184 ± 0.00109 µM,0.0255 ± 0.0138 µM
"CC/C(=C(/c1ccc(OCCNC/C=C/C(=O)N(C)CC)cc1)c1ccc2[nH]ncc2c1)c1ccccc1 [Compound 16, (E)-4-((2-(4-((E)-1-(1H-indazol-5-yl)-2-phenylbut-1-en-1-yl)phenoxy)ethyl)amino)-N-ethyl-N-methylbut-2-enamide]",0.00166 µM,0.0219 µM
"CCCN(C)C(=O)/C=C/CNCCOc1ccc(/C(=C(/CC)c2ccccc2)c2ccc3[nH]ncc3c2)cc1 [Compound 17, (E)-4-((2-(4-((E)-1-(1H-indazol-5-yl)-2-phenylbut-1-en-1-yl)phenoxy)ethyl)amino)-N-methyl-N-propylbut-2-enamide]",0.00218 µM,0.0252 µM
"CC/C(=C(/c1ccc(OCCNC/C=C/C(=O)N(C)CCO)cc1)c1ccc2[nH]ncc2c1)c1ccccc1 [Compound 18, (E)-4-((2-(4-((E)-1-(1H-indazol-5-yl)-2-phenylbut-1-en-1-yl)phenoxy)ethyl)amino)-N-(2-hydroxyethyl)-N-methylbut-2-enamide]",0.00163 ± 0.00141 µM,0.0214 ± 0.015 µM
"CC/C(=C(/c1ccc(OCCNC/C=C/C(=O)N(C)C)cc1)c1ccc2[nH]nc(F)c2c1)c1ccc(F)cc1Cl [Compound 19, (E)-4-((2-(4-((E)-2-(2-chloro-4-fluorophenyl)-1-(3-fluoro-1H-indazol-5-yl)but-1-en-1-yl)phenoxy)ethyl)amino)-N,N-dimethylbut-2-enamide]",0.00158 µM,0.0186 µM
"CC/C(=C(/c1ccc(OCCNC/C(C)=C/C(=O)N(C)C)cc1)c1ccc2[nH]ncc2c1)c1ccccc1 [Compound 21, (E)-4-((2-(4-((E)-1-(1H-indazol-5-yl)-2-phenylbut-1-en-1-yl)phenoxy)ethyl)amino)-N,N,3-trimethylbut-2-enamide]",0.0266 ± 0.0218 µM,0.154 ± 0.0517 µM
"CC/C(=C(/c1ccc(OCCNC/C=C\C(=O)N(C)C)cc1)c1ccc2[nH]ncc2c1)c1ccccc1 [Compound 22, (Z)-4-((2-(4-((E)-1-(1H-indazol-5-yl)-2-phenylbut-1-en-1-yl)phenoxy)ethyl)amino)-N,N-dimethylbut-2-enamide]",0.00242 ± 0.00195 µM,0.0216 ± 0.00026 µM
"O=C(/C=C/CNCCOc1ccc(/C(=C(\c2ccccc2)C2CCC2)c2ccc3[nH]ncc3c2)cc1)N1CCOCC1 [Compound 23, (E)-4-((2-(4-((E)-2-cyclobutyl-1-(1H-indazol-5-yl)-2-phenylvinyl)phenoxy)ethyl)amino)-1-morpholinobut-2-en-1-one]",0.00152 ± 0.00105 µM,0.0242 ± 0.00657 µM
